In patent publication US8802723B2, “Metabolic syndrome-improving agent and medicine, supplement, functional food and food additive containing the same” (ARKRAY, Inc., priority 2005, dated 2014):

Legend:
[1] = molecular target: T1, PPARα (Homo sapiens, UniProt Q07869); experiment: PPARα ligand activity, GAL4-hPPARα luciferase reporter assay in CV-1 cells; format: cell-based; conditions: for PPARα ligand activity: 24 h, relative to non-treatment control (DMSO) = 100, average ± standard error
T1 construct: GAL4 (pM vector); expressed in transfected cells; host or cells: CV-1 cells (African green monkey kidney)
T1 sequence (Q07869 1-468): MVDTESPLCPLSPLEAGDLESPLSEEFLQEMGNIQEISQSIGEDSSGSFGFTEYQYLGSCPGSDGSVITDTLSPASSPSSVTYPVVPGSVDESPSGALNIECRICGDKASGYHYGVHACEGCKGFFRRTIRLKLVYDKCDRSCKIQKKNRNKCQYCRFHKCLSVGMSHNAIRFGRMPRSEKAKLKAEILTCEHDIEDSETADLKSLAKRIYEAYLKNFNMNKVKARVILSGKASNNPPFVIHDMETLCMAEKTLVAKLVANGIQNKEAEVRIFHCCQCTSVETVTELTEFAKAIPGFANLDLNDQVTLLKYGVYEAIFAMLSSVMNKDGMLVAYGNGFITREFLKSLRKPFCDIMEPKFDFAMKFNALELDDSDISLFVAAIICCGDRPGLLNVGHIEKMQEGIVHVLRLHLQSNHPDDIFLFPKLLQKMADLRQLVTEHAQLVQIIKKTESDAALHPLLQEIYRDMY
Procedure: CV-1 cells (cultured cells derived from kidneys of male African green monkeys) were implanted on 24-well culture plates so as to be […] and cultured at 37° C. in 5% CO2 for 24 hours. As a medium, DMEM (Dulbecco's Modified Eagle Medium; manufactured by GIBCO) containing 10% FBS (fetal bovine serum) and a 10 mg/mL penicillin streptomycin solution was used. Using the Lipofectamine system (trade name; manufactured by Invitrogen Corporation), pM-hPPARγ and p4× UASg-tk-luc were transfected. The above-noted pM-hPPARγ was a chimeric protein-expression plasmid binding GAL4 gene (amino acid sequence 1-147) and human PPARγ ligand-binding site gene (amino acid sequence 204-505), whereas the above-noted p4× UASg-tk-luc was a reporter plasmid containing four copies of a responsive element (UAS) of GAL 4 upstream of a luciferase gene. About 24 hours after the transfection, samples of aurapten at respective concentrations (0.1, 1.0, 10, 50 and 100 μM) were added to the above-described media, followed by 24 hour incubation. The above-noted samples were prepared by dissolving aurapten in dimethyl sulfoxide (DMSO). Instead of the aurapten, DMSO was added to non-treated control media. After the incubation, measurement was made using a Dual-Luciferase Reporter Gene Assay system (trade name; manufactured by Promega Corporation).
Similarly to the measurement group, as a control group, pM (a plasmid from which PPARγ ligand-binding site gene was removed) was used for measurement instead of pM-hPPARγ. For each sample, the ratio between average luminescence intensities of the measurement group and the control group (n=4) (measurement group/control group) was calculated, and an activity relative to the non-treatment control was determined as the PPARγ ligand activity of the sample.
The PPARα ligand activity of aurapten was measured similarly to Example 1 except that pM-hPPARα was used instead of pM-hPPARγ and the aurapten concentrations were set to 0.1, 1.0, 10, 50 and 80 μM.

[2] = system: adiponectin secretion in 3T3-L1 cells; experiment: adiponectin secretion amount of 3T3-L1 adipocytes by ELISA; format: cell-based; conditions: for Adiponectin secretion amount: 3T3-L1 medium supernatant 7 days after differentiation induction, non-treatment control 3.49 ± 0.78, average ± standard error
Procedure: Next, culture preadipocytes 3T-L1 were thawed, inoculated in a 100 mm dish and cultured until 3T3-L 1 cells reached about 80% confluence. A single dish of 3T3-L1 that had reached about 80% confluence was subcultured to a single 6-well plate and further cultured until the 3T3-L1 cells reached confluence in the 6-well plate, and then the medium was replaced with the differentiation induction medium, followed by differentiation induction. 48 hours later, the medium was replaced with the differentiation promotion medium, and thereafter, the medium was replaced with the differentiation promotion medium every two days. 7 days after the initiation of the differentiation induction, mRNA was extracted using Sepasol(R)—RNA I super (manufactured by Nacalai Tesque, Inc.), and the mRNA expression amounts of 36B4, aP2 and adiponectin, which were indicators of an early period of adipocyte differentiation, were measured using Light Cycler™. Also, the medium 7 days after the differentiation induction was taken in an amount of 1 mL from each well, and the amount of adiponectin in the medium supernatant was measured using a mouse/rat adiponectin ELISA kit (trade name) (manufactured by Otsuka Pharmaceutical Co., Ltd.). […]
Only the strips of the antibody plates necessary for the analysis were taken out. […] 100 μL of the standard solutions with respective concentrations and 100 μL of the diluted analytes were added to individual wells and measured in duplicate. Incidentally, the standard solutions always were measured for each measurement and each plate. […] After 100 μL of the substrate solution was added to each well of the antibody plate and allowed to stand still for reaction for 15 minutes at room temperature, 100 μL of the reaction stop solution was added to each well of the antibody plate, and then the absorbance at 450 nm in each well was measured with a plate reader.

effect on PPARα activity (in words) ([1]; 0.1-80 μM, increased in keeping with the concentration): improved the activity of PPARα
PPARα ligand activity ([1]; aurapten 0.1 μM): 234 ± 39.4
PPARα ligand activity ([1]; aurapten 1.0 μM): 139 ± 38.3
PPARα ligand activity ([1]; aurapten 10 μM): 302 ± 98.2
PPARα ligand activity ([1]; aurapten 50 μM): 409 ± 27.8
PPARα ligand activity ([1]; aurapten 80 μM): 1052 ± 232.9
Compound: CC(C)=CCC/C(C)=C/COc1ccc2ccc(=O)oc2c1 [Aurapten, aurapten]
Adiponectin secretion amount ([2]; aurapten 1 μM): 3.64 ± 0.82
Adiponectin secretion amount ([2]; aurapten 5 μM): 4.69 ± 0.16
effect on adiponectin secretion in adipocytes (in words) ([2]; compared with non-treated control medium): enhance the secretion of adiponectin
